According to PMC6214143, “Oncotoxic Properties of Serotonin Transporter Inhibitors and 5-HT1A Receptor Ligands” (International Journal of Molecular Sciences, 2018):
Counter-ions that a name gives are not always drawn.

Key:
[1] = design: method as in PMID 7705455; conditions: rats, s.c.; cited from earlier work
[2] = tested on: PC-3 cells; test: MTT cell survival assay, PC-3 cells; type: cell-based, human; conditions: PC-3 cells
Protocol: (§1) The effects of the test compounds on the survival of PC-3, SH-SY5Y, Balb/c 3T3 and HEK293 cells was measured with the aid of the 3-(4,5-dimethylthiazol-2-yl)-2,5-diphenyltetrazolium bromide (MTT) assay. The cells were cultured in 96-well plates (100 μL/well) for 72 h. The optimized initial densities were the following: for PC-3—60,000 cells/mL, SH-SY5Y and Balb/c 3T3—50,000 cells/mL.
(§2) After 20 h preincubation and evaluation of the uniformity of cell growth, the medium was aspirated, and the respective solutions of the substances were added to the culture medium. Control cells were only treated the solvent used for the compounds and medium alone.
(§3) MTT (3-(4,5-dimethylthiazol-2-yl)-2,5-diphenyltetrazolium bromide) is reduced by intracellular dehydrogenase, which is present only in live cells (mitochondria), to purple, water-insoluble formazan. After it is dissolved, formazan absorbance of the resulting solution is directly proportional to the number of living cells in culture.
(§4) After appropriate incubation, the culture medium was removed. Next, 50 μL of MTT solution (0.5 mg/mL) diluted in PBS to 0.5 mg/mL was added to each well. […] Then, the precipitated formazan was dissolved by the addition of 200 μL isopropanol. […] The plates were sealed to reduce evaporation before incubation. The test was performed in three to five independent experiments with four times the measured concentration tested. The cell survival percentage was determined as % of controls, which were cells treated with the test compound solvent at the highest concentration.

[3] = molecular target: 5-HT1A receptor; conditions: cited from earlier work
[4] = molecular target: T1, 5-HT1A receptor (Homo sapiens, UniProt P08908); test: cAMP level (HTRF) in HEK293 cells that overexpress the 5-HT1AR gene; type: cell-based; conditions: agonist mode, 1 µM forskolin-stimulated HEK293-5-HT1A cells
T1 construct: EGFP; expressed in transfected cells
T1 sequence (P08908 1-422): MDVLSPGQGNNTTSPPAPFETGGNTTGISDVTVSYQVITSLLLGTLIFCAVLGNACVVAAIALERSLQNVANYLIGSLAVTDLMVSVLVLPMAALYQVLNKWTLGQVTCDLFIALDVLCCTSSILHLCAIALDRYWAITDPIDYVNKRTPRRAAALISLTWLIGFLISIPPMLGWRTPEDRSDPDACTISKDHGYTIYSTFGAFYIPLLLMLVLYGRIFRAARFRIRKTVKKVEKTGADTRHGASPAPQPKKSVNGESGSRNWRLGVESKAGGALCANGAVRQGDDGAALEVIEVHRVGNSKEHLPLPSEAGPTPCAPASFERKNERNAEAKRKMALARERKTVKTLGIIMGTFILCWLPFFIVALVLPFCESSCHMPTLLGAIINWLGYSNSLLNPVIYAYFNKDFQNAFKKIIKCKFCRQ
Protocol: (§5) The examination of the functional activity read out as cAMP level inhibition and ERK1/2 and Akt1 phosphorylation was performed according to the instructions of the One-plate Cisbio Bioassays cAMP dynamic 2, phospho-ERK (Thr202/Tyr204) and Akt1 phospho- S473 Cellular Assay Kits respectively, using a HEK293 human fibroblast cell line that overexpresses 5-HT1A receptors. […] The cAMP levels in PC-3 cells were determined using 600,000 cells/mL. Receptor activation with the appropriate ligands was carried out for 30 min, and then the cells were lysed. The results were analyzed with GraphPad Prism v 6.0 (GraphPad Software, San Diego, CA, USA) using its in-built functions. Ligand activity was determined using a 4-parameter equation of the dose-response function. […] M.
(§6) All compounds were tested with both agonists and antagonists. To test the response of cAMP to an agonist the cells were activated with forskolin (1 µM) followed by agonist addition. […] Data are an average of minimum three independent experiments in duplicate. The control of specific activity was measured under the same conditions on cells lacking the 5-HT1A receptor. The results were expressed as % of the reference agonist activity. In the antagonist mode 100% of the reference agonist activity (EC80) corresponded to 0% antagonist activity.

[5] = molecular target: T1, 5-HT1A receptor; test: ERK1/2 phosphorylation (HTRF) in HEK293 cells that overexpress the 5-HT1AR gene; type: cell-based; conditions: HEK293-5-HT1A cells
Protocol: as §5, §6

[6] = tested on: dopamine D2 receptor; conditions: cited from earlier work
[7] = tested on: SH-SY5Y cells; test: MTT cell survival assay, SH-SY5Y cells; type: cell-based, human; conditions: SH-SY5Y cells
Protocol: as §1, §2, §3, §4

[8] = tested on: Balb/c 3T3 cells; test: MTT cell survival assay, Balb/c 3T3 cells (normal reference); type: cell-based, murine; conditions: Mus musculus, BALB/c3T3, 72 h
Protocol: as §1, §2, §3
After appropriate incubation, the culture medium was removed. Next, 50 μL of MTT solution (0.5 mg/mL) diluted in PBS to 0.5 mg/mL was added to each well. The plates were incubated for 3 h at 37 °C. Then, the precipitated formazan was dissolved by the addition of 200 μL isopropanol. After a 24-hour incubation at 4 °C in the dark, the absorbance of the dissolved formazan was measured at 570 nm (the maximum absorption of formazan) and at 690 nm (reference wavelength) using a Power Wave XS microplate spectrophotometer (Bio-Tek, Winooski, VT, USA). The plates were sealed to reduce evaporation before incubation. The test was performed in three to five independent experiments with four times the measured concentration tested. The cell survival percentage was determined as % of controls, which were cells treated with the test compound solvent at the highest concentration.

[9] = tested on: PC-3 cells; test: cAMP level in PC-3 prostate cancer cells; type: cell-based; conditions: Homo sapiens, 1 µM forskolin
Protocol: (§7) The examination of the functional activity read out as cAMP level inhibition and ERK1/2 and Akt1 phosphorylation was performed according to the instructions of the One-plate Cisbio Bioassays cAMP dynamic 2, phospho-ERK (Thr202/Tyr204) and Akt1 phospho- S473 Cellular Assay Kits respectively, using a HEK293 human fibroblast cell line that overexpresses 5-HT1A receptors. The measurements were performed in 384-well microtiter plates using 200,000, 1,875,000 or 2,000,000 cells/mL. The cAMP levels in PC-3 cells were determined using 600,000 cells/mL. Receptor activation with the appropriate ligands was carried out for 30 min, and then the cells were lysed. The results were analyzed with GraphPad Prism v 6.0 (GraphPad Software, San Diego, CA, USA) using its in-built functions. Ligand activity was determined using a 4-parameter equation of the dose-response function. The response curves were obtained by plotting the HTRF® ratio (signal ratio 665/620 nm × 10,000) relative to the log concentration of the [compound] M.

[10] = tested on: Akt pathway; test: pAkt level (Akt1 phospho-S473 HTRF) in HEK293 cells that overexpress the 5-HT1AR gene; type: cell-based; conditions: Homo sapiens
Protocol: as §7

[11] = WAY100635 (5 µM), spiperone (5 µM)

## CCCN(CCC)[C@@H]1CCc2cccc(O)c2C1 [Compound 8-OH-DPAT, (2R)-(+)-8-Hydroxy-2-(di-n-propylamino)tetralin hydrobromide]
[1]
  minimal effective dose (MED), reduction of immobility: 0.63 mg/kg

## COc1ccc2cccc(N3CCN(CCNC(=O)c4ccc(F)cc4)CC3)c2c1.Cl [Compound S14506, 4-Fluoro-N-[2-[4-(7-methoxy-1-naphthalenyl)-1-piperazinyl]ethyl]benzamide hydrochloride, reference compound]
[2]; Homo sapiens, MTT, 72 h
  IC50: 9980 ± 1260 nM
[2]; [11]
  cytotoxic activity in the presence of WAY100635 and spiperone: reversed
[3]
  Kd: 0.79 ± 0.2 nM
[4]
  EC50: 0.0254 nM
[5]; agonist mode, read-out: ERK1/2 EC50
  EC50: 0.062 nM
[5]; elevating phosphorylated ERK1/2 levels, read-out: MAPK/ERK1/2 pathway agonist EC50
  EC50: 0.093 nM
[6]
  dopamine D2 receptor properties: dopamine D2 receptor antagonist
[7]; Homo sapiens, MTT, 72 h
  IC50: 4270 ± 410 nM
[7]; [11]
  cytotoxic activity in the presence of WAY100635 and spiperone: not against neuroblastoma SH-SY5Y cells
[8]
  IC50: 20600 ± 2580 nM
[9]
  EC50: 320 nM
[9]; read-out: cAMP biochemical pathway IC50
  IC50: 320 nM
[10]
  IC50: 15400 nM
